Test results taken from US5668134A, “Method for preventing or reducing photosensitivity and/or phototoxicity reactions to medications” (priority 1994, dated 1997).
“And” between values parts separate entries of the source, which are not always exact repeats. Equal entries are not always repeated. Structures can show the parent of a compound that is named as a salt.

Tests used:
[1] = tested on: skin of healthy volunteers; experiment: Example 5: Minimum Erythema Dose with UVA radiation, morning vs evening dosing; assay type: in vivo, human; conditions: for phototoxicity of evening versus morning dosing: UVA exposure 16 hours vs 2 hours after dosing; for DELAYED MED / IMMEDIATE MED / MED, 0 H / MED, 3 H / MED, 6 H / MED, 24 H / MED, 48 H / MED, 72 H / CHANGE BASELINE, delayed MED / CHANGE BASELINE, immediate MED: individual subjects; for MED, 0 H: 0 H post-radiation; for MED, 3 H: 3 H post-radiation; for MED, 6 H: 6 H post-radiation; for MED, 24 H: 24 H post-radiation; for MED, 48 H: 48 H post-radiation; for MED, 72 H: 72 H post-radiation; for CHANGE BASELINE, delayed MED / CHANGE BASELINE, immediate MED: baseline minus posttreatment
Procedure: This study describes a randomized, single site, double-blind, two treatment, two period, two sequence, cross-over clinical pharmacology study which was performed according to FDA regulations in 27 healthy normal volunteers with fair skin that could easily burn when exposed to sunlight, to assess the photosensitivity and/or phototoxicity potential of oral 400 mg lomefloxacin hydrochloride (MAXAQUIN®) administered once daily for 4 consecutive days either in the morning (morning dose group), as described hereinbelow, or in the early evening (evening dose group), as described hereinbelow. Irradiation and evaluation of irradiated sites began at 2 hours after the final morning dose of lomefloxacin HCl for the morning dosing group, and began 16 hours after the final evening dose of lomefloxacin HCl for the evening dosing group.
"Baseline MED" was defined as the lowest dose of UVA radiation alone, or UVA and UVB radiation, that produced a minimal perceptible erythema filling a 1 cm^2 patch of skin 24 hours post radiation.
"Delayed MED" was defined as the lowest dose of UVA radiation alone, or UVA and UVB radiation, that produced a minimal perceptible erythema filling a 1 cm^2 patch of skin, when testing the area 24, 48 and 72 hours post radiation.
"Immediate MED" was defined as the lowest dose producing minimal perceptible erythema filling a 1 cm^2 patch of skin when testing the area 0, 3, and 6 hours post radiation.
After all baseline procedures, including determination of baseline MEDUVA and MEDUVA+UVB values 24 hours post-radiation, were completed, all subjects started Study Day 1 of Treatment Period 1 with an evening dose of study medication, and completed this phase of the treatment regime with a morning dose of study medication on Study Day 5. Two hours after the final morning dose, and 16 hours after the last evening dose, a randomly selected site composed of six patches of skin, each with an area of one square centimeter, on the back or buttock of the subject was irradiated with incremental amounts of energy. Immediately following irradiation (0 hour), and at 3, 6, 24, 48 and 72 hours following irradiation, each skin patch area was evaluated to determine the MEDs, and assess the severity of skin reaction using a five-grade system, as described hereinbelow. The lowest of the MEDs determined at 0, 3 and 6 hours post-radiation were referred to as immediate MEDs, and the lowest of the MEDs determined at 24, 48 and 72 hours post-radiation were referred to as delayed MEDs.
The source of radiation employed was an Oriel (Santa Monica, Calif.) Xenon Arc 1000 watt solar simulator, with the following filters: WG320 filter (1 mm thick, emitting full spectrum UVA and UVB radiation), WG335 filter (3 mm thick, emitting almost exclusively UVA radiation) or UG11 filter (to filter infrared radiation).
For predrug exposure MED determination, 2 sets each with six 1 cm^2 patches on the back or buttocks were irradiated with increasing doses of UVA and UVB radiation, and UVA radiation alone, up to 7 days prior to beginning of drug treatment. With respect to UVA light source, irradiation began at 5 J/cm^2, and was increased by increments of 5 J/cm^2 using a different skin patch for each exposure. The maximum radiation dose was 30 J/cm^2. Subjects with MED greater than 30 J/cm^2 were excluded from the study. […] A different skin patch was used for each exposure.
Two hours after the administration of the last dose of Treatment Period 1 (a.m. dose), the two randomly selected sites on each subject's back or buttocks were exposed one to UVA and UVB radiation, and one to UVA radiation alone. In order to protect the subjects from excessive radiation, as well as assess the true Minimum Erythema Dose (MED), the posttreatment irradiation doses for each subject was adjusted in accordance with their pretreatment MEDs. The following table was used to determine each subject's minimum and maximum posttreatment radiation dose: […]

[2] = tested on: skin of healthy volunteers; conditions: in vivo
Source text: The relationship between plasma concentration at time of irradiation and delayed MEDUVA was explored using regression analysis by testing the equality of the slopes of the regression of delayed MEDUVA on plasma concentration, obtaining estimates of the parameters of the regression line, and determining the correlation coefficient.

[3] = mean, UVA, a.m. dosing, p=0.002

CCn1cc(C(=O)O)c(=O)c2cc(F)c(N3CCNC(C)C3)c(F)c21 (racemic) [lomefloxacin HCl, monohydrochloride salt of (±)-1-ethyl-6,8-difluoro-1,4-dihydro-7-(3-methyl-1-piperazinyl)-4-oxo-3-quinolinecarboxylic acid]
phototoxicity of evening versus morning dosing [1]: less sensitive to light
phototoxicity of evening versus morning dosing ([1]; listed as MAXAQUIN®): significantly less phototoxic
mean change of delayed MEDUVA, a.m. versus p.m. ([1]; in vivo): statistically significant difference
treatment effect on delayed MEDUVA, conservative analysis ([1]; in vivo): statistically significant treatment effect
DELAYED MED ([1]; UVA, a.m. dosing): 10.000 J/cm^2 and 20.000 J/cm^2 and 15.000 J/cm^2 and 30.000 J/cm^2 and 25.000 J/cm^2
IMMEDIATE MED ([1]; UVA, a.m. dosing): 15.000 J/cm^2 and 20.000 J/cm^2 and 30.000 J/cm^2 and 25.000 J/cm^2
MED, 0 H ([1]; UVA, a.m. dosing): 25.000 J/cm^2 and 30.000 J/cm^2 and 15.000 J/cm^2
MED, 3 H ([1]; UVA, a.m. dosing): 15.000 J/cm^2 and 20.000 J/cm^2 and 25.000 J/cm^2
MED, 6 H ([1]; UVA, a.m. dosing): 15.000 J/cm^2 and 20.000 J/cm^2 and 30.000 J/cm^2 and 25.000 J/cm^2
MED, 24 H ([1]; UVA, a.m. dosing): 10.000 J/cm^2 and 20.000 J/cm^2 and 15.000 J/cm^2 and 30.000 J/cm^2 and 25.000 J/cm^2
MED, 48 H ([1]; UVA, a.m. dosing): 15.000 J/cm^2 and 25.000 J/cm^2 and 30.000 J/cm^2 and 20.000 J/cm^2
MED, 72 H ([1]; UVA, a.m. dosing): 15.000 J/cm^2 and 25.000 J/cm^2 and 20.000 J/cm^2 and 30.000 J/cm^2
CHANGE BASELINE, delayed MED ([1]; UVA, a.m. dosing): 20.000 J/cm^2 and 5.000 J/cm^2 and 10.000 J/cm^2 and -5.000 J/cm^2
CHANGE BASELINE, immediate MED ([1]; UVA, a.m. dosing): 15.000 J/cm^2 and 5.000 J/cm^2 and 10.000 J/cm^2 and -5.000 J/cm^2
DELAYED MED ([1]; UVA, p.m. dosing): 30.000 J/cm^2 and 25.000 J/cm^2 and 20.000 J/cm^2
IMMEDIATE MED ([1]; UVA, p.m. dosing): 30.000 J/cm^2 and 25.000 J/cm^2
MED, 0 H ([1]; UVA, p.m. dosing): 30.000 J/cm^2 and 25.000 J/cm^2
MED, 3 H ([1]; UVA, p.m. dosing): 30.000 J/cm^2
MED, 6 H ([1]; UVA, p.m. dosing): 30.000 J/cm^2 and 25.000 J/cm^2
MED, 24 H ([1]; UVA, p.m. dosing): 30.000 J/cm^2 and 25.000 J/cm^2
MED, 48 H ([1]; UVA, p.m. dosing): 30.000 J/cm^2 and 20.000 J/cm^2 and 25.000 J/cm^2
MED, 72 H ([1]; UVA, p.m. dosing): 30.000 J/cm^2 and 25.000 J/cm^2
CHANGE BASELINE, delayed MED ([1]; UVA, p.m. dosing): -5.000 J/cm^2 and 0.000 J/cm^2 and 5.000 J/cm^2
CHANGE BASELINE, immediate MED ([1]; UVA, p.m. dosing): -5.000 J/cm^2 and 5.000 J/cm^2 and 0.000 J/cm^2
DELAYED MED, mean ([1]; mean, UVA, a.m. dosing): 20.000 J/cm^2
IMMEDIATE MED, mean ([1]; mean, UVA, a.m. dosing): 19.615 J/cm^2
MED, 0 H, mean ([1]; mean, UVA, a.m. dosing): 25.500 J/cm^2
MED, 3 H, mean ([1]; mean, UVA, a.m. dosing): 20.833 J/cm^2
MED, 6 H, mean ([1]; mean, UVA, a.m. dosing): 19.615 J/cm^2
MED, 24 H, mean ([1]; mean, UVA, a.m. dosing): 20.385 J/cm^2
MED, 48 H, mean ([1]; mean, UVA, a.m. dosing): 22.692 J/cm^2
MED, 72 H, mean ([1]; mean, UVA, a.m. dosing): 23.077 J/cm^2
CHANGE BASELINE, delayed MED, mean [1, 3]: 6.5 J/cm^2 and 6.538 J/cm^2
CHANGE BASELINE, immediate MED, mean [1, 3]: 6.923 J/cm^2 and 6.9 J/cm^2
DELAYED MED, mean ([1]; mean, UVA, p.m. dosing): 27.917 J/cm^2
IMMEDIATE MED, mean ([1]; mean, UVA, p.m. dosing): 28.750 J/cm^2
MED, 0 H, mean ([1]; mean, UVA, p.m. dosing): 28.333 J/cm^2
MED, 3 H, mean ([1]; mean, UVA, p.m. dosing): 30.000 J/cm^2
MED, 6 H, mean ([1]; mean, UVA, p.m. dosing): 28.750 J/cm^2
MED, 24 H, mean ([1]; mean, UVA, p.m. dosing): 28.333 J/cm^2
MED, 48 H, mean ([1]; mean, UVA, p.m. dosing): 28.182 J/cm^2
MED, 72 H, mean ([1]; mean, UVA, p.m. dosing): 28.500 J/cm^2
CHANGE BASELINE, delayed MED, mean ([1]; mean, UVA, p.m. dosing, p=1.000): 0.000 J/cm^2
reduction in Minimum Erythema Dose from baseline at high plasma concentration [2]: marked reduction in Minimum Erythema Dose from baseline
reduction in Minimum Erythema Dose from baseline at low plasma concentration [2]: no reduction in Minimum Erythema Dose from baseline
